Article PMC9917443 (eLife, 2023)

Key:
[1] = system: mEPSCs in brain slices / cultured hippocampal neurons; details: cultured hippocampal neurons APP17 250 nM, ref Rice et al., 2019; cited from earlier work
From the text: GBRs are composed of a GB1a or GB1b subunit with a GB2 subunit, which generates heterodimeric GB1a/2 and GB1b/2 receptors ([Pin and Bettler, 2016]). GB1a differs from GB1b by the presence of two N-terminal sushi domains (SD1/2). GB1a/2 and GB1b/2 receptors predominantly localize to pre- and postsynaptic sites, respectively ([Vigot et al., 2006]). APP and sAPP bind to SD1 of GB1a ([Schwenk et al., 2016]; [Dinamarca et al., 2019]; [Rice et al., 2019]). Synthetic APP peptides of 9 or 17 amino acid residues, termed APP9 and APP17, are sufficient for binding and inducing a stable conformation in SD ... || GB1a/2 receptors are abundant at axon terminals where they inhibit neurotransmitter release ([Vigot et al., 2006]). […] A GBR antagonist blocked the effect of APP17 on the mEPSC frequency, supporting a GBR-dependent mechanism.

[2] = system: native GBRs in mouse brain membranes; assay: [^35S]GTPγS binding in brain membrane preparations
[3] = system: spontaneous neuronal activity in the auditory cortex; assay: two-photon Ca^2+ imaging of auditory cortex in anesthetized mice; details: 5 µM perfused over cortex; peptides 60 min, baclofen 15 min
[4] = system: GBR-activated K^+ currents in cultured hippocampal neurons; assay: K^+ currents in cultured hippocampal neurons (patch-clamp); format: cell-based, mouse; details: for K^+ currents evoked by compound alone (in words): 5 µM, -70 mV
Protocol: APP17 signaling through native GBRs may depend on protein-protein interactions that are not preserved in the membrane preparations used for the [^35S]GTPγS binding assay. Therefore, we tested whether APP17 influences GBR-mediated Gβγ signaling to K^+ channels in cultured hippocampal neurons using patch-clamp electrophysiology, which preserves the native environment of receptors ([Schuler et al., 2001]; [Vigot et al., 2006]). […] . Neuronal cultures and HEK293T cells were prepared as described ([Dinamarca et al., 2019]). Coverslips with hippocampal neurons (DIV 12–15) or HEK293T cells were transferred to a chamber containing a low-K^+ bath solution (in mM): 145 NaCl, 4 KCl, 5 HEPES, 5.5 D-glucose, 1 MgCl2, and 1.8 CaCl2 (pH 7.4 adjusted with NaOH). Recordings were performed at room temperature using borosilicate pipettes of 3–5 MΩ resistance tips, filled with K-gluconate-based pipette solution (in mM): 150 K-gluconate, 1.1 EGTA, 10 HEPES, 10 Tris-phosphocreatine, 0.3 NaGTP, and 4 MgATP (pH 7.2 adjusted with KOH). Upon achieving whole-cell access, cells were held in voltage-clamp mode at −70 mV (with no correction for liquid junction potential) and baclofen-induced K^+ currents were induced in a high-K^+ bath solution (in mM): 120 NaCl, 25 KCl, 5 HEPES, 5.5 D-glucose, 1 MgCl2, and 1.8 CaCl2 (pH 7.4 adjusted with NaOH). […] Schaffer collaterals were stimulated at 0.1 Hz with brief current pulses via bipolar Pt/Ir wires. Evoked EPSCs were recorded at –60 mV with a Cs^+-based intracellular solution. Baclofen and peptides were bath applied in standard ACSF at room temperature. We recorded mEPSCs in primary neuronal cultures established from embryonic (E15–17) murine hippocampus at DIV13–16 in the presence of 0.5 μM TTX at room temperature ([Dinamarca et al., 2019]). APP17 (250 nM) and (R)-baclofen (30 μM) were applied via superfusion. Template matching with pClamp 10 software (Molecular Devices) was used to detect individual mEPSCs.

[5] = system: mEPSCs of cultured hippocampal neurons; assay: mEPSC frequency in cultured hippocampal neurons; format: cell-based, mouse; details: baclofen 30 µM, after APP17, 0.5 μM TTX
Protocol: (§1) GB1a/2 receptors are abundant at axon terminals where they inhibit neurotransmitter release ([Vigot et al., 2006]). […] A GBR antagonist blocked the effect of APP17 on the mEPSC frequency, supporting a GBR-dependent mechanism. […] We additionally studied whether APP17 at 250 nM influences eEPSC amplitudes in acute hippocampal slices. Postsynaptic GBR-activated K^+ currents were blocked with a Cs^+-based intracellular solution, which allowed to specifically monitor the activity of presynaptic GBRs.
(§2) Neuronal cultures and HEK293T cells were prepared as described ([Dinamarca et al., 2019]). Coverslips with hippocampal neurons (DIV 12–15) or HEK293T cells were transferred to a chamber containing a low-K^+ bath solution (in mM): 145 NaCl, 4 KCl, 5 HEPES, 5.5 D-glucose, 1 MgCl2, and 1.8 CaCl2 (pH 7.4 adjusted with NaOH). Recordings were performed at room temperature using borosilicate pipettes of 3–5 MΩ resistance tips, filled with K-gluconate-based pipette solution (in mM): 150 K-gluconate, 1.1 EGTA, 10 HEPES, 10 Tris-phosphocreatine, 0.3 NaGTP, and 4 MgATP (pH 7.2 adjusted with KOH). […] Evoked EPSCs were recorded at –60 mV with a Cs^+-based intracellular solution. […] We recorded mEPSCs in primary neuronal cultures established from embryonic (E15–17) murine hippocampus at DIV13–16 in the presence of 0.5 μM TTX at room temperature ([Dinamarca et al., 2019]). […]

[6] = system: eEPSCs of CA1 pyramidal neurons; assay: eEPSC amplitudes in CA1 pyramidal neurons of acute hippocampal slices; set-up: species or system mouse; details: APP17 250 nM or baclofen 20 µM, Cs^+-based intracellular solution
Protocol: as §1, §2

GB1a/2 receptors [7] = target: T1, GB1a/2 receptors (Homo sapiens, UniProt O75899+Q9UBS5); assay: PKA luminescence assay (R-RLuc-N / C-RLuc-C) of Gαi signaling in HEK293T cells
T1 sequence (Q9UBS5 15-961 limits assumed): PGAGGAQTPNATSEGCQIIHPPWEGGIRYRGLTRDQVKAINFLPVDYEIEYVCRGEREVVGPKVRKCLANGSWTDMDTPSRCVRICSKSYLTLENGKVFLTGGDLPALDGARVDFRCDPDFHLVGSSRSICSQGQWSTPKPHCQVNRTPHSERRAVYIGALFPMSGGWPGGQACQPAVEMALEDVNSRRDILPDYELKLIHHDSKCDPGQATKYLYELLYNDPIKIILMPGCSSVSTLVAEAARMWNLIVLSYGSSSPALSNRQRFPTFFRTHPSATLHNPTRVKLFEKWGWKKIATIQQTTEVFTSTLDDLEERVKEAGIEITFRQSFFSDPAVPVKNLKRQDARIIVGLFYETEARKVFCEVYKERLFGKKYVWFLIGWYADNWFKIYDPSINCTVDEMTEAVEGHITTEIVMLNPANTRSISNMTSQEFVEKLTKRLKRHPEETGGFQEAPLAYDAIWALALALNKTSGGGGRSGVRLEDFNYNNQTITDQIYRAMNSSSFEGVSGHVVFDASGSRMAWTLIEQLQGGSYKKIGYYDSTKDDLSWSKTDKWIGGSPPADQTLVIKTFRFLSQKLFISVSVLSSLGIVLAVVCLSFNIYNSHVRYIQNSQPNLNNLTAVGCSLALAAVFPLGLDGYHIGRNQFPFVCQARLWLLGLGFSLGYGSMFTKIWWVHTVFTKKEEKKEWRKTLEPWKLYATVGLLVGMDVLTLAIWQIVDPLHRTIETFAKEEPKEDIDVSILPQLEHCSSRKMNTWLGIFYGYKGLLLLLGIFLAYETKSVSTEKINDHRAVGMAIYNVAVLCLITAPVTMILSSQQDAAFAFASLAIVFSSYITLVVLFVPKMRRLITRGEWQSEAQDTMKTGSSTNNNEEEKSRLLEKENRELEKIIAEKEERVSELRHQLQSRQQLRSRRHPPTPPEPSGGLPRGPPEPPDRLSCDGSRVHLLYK
T1 sequence (O75899 42-941 partner): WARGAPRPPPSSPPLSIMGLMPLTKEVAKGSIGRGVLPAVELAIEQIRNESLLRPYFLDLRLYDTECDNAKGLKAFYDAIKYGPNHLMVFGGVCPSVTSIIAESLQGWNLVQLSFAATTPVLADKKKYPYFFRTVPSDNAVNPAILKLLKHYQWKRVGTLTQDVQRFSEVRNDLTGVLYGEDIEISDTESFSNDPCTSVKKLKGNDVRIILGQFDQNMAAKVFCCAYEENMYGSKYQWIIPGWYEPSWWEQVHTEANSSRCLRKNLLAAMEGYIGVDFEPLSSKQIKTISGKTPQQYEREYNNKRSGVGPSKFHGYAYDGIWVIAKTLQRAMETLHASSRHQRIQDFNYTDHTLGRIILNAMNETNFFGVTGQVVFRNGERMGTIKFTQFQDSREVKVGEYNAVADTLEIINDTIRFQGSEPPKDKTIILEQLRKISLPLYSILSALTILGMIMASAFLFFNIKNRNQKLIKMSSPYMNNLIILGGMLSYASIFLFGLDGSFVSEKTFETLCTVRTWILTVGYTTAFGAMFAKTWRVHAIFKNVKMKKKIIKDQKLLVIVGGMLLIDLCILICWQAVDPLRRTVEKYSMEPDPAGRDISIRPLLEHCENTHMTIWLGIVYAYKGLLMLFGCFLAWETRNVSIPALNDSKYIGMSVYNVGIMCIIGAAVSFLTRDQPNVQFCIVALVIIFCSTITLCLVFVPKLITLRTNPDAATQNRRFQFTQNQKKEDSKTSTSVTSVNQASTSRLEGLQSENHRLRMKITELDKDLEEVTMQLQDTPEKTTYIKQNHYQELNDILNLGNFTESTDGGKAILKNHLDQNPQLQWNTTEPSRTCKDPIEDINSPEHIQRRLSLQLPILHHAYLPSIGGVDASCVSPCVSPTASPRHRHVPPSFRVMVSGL

[8] = system: GB1a/2 receptor-induced Kir3 currents in HEK293T cells; assay: Kir3 K^+ currents in transfected HEK293T cells (patch-clamp); format: cell-based
GB1a/2 receptors [9] = target: T1, GB1a/2 receptors; assay: Ca^2+ mobilization assay (Calcium 6) in HEK293T cells expressing GB1a/2; format: cell-based; set-up: Flag (N); expressed in transfected cells; host or cells: HEK293T cells stably expressing chimeric Gαqi; details: 1 or 10 μM
GB1a/2 receptors [10] = target: T1, GB1a/2 receptors; assay: inter-subunit FRET conformational sensor (HA-GB1a-ACP / Flag-SNAP-GB2) in HEK293T cells; details: for Fig. 2c value, 10mM GABA / Fig. 2c value, Basal: + Vehicle Basal given as 100; for Fig. 2c value, Basal: Basal (no GABA)
[11] = system: GB1a/2 receptors in HEK293T cells; assay: APP17-TMR binding / displacement at GB1a/2 receptors in HEK293T cells; details: 10 μM peptide
Protocol: Transfected HEK293T cells expressing Flag-GB1a and Flag-GB2 were seeded into 96-well microplates (Greiner Bio-One, Kremsmünster, Austria) at 50,000 cells/well. After 18 hr, peptides were mixed with conditioned medium at the following final concentrations: APP17-TMR (1 µM) with either APP17 (10 µM), sc-APP17 (10 µM), or PBS (vehicle); sc-APP17-TMR (1 µM) in PBS was used as a negative control. After removal of medium, peptide mixes were added to the wells and cells incubated in the dark for 1 hr at room temperature. After removal of the peptides, PBS with MgCl2 and CaCl2 (Sigma-Aldrich) was added to the wells. TMR fluorescence was monitored with a Spark microplate reader (Tecan Group, Männerdorf, Switzerland) using a monochromator (Excitation 544 nm, […] bandwidth; detection […], 25 nm bandwidth). TMR fluorescence was determined after subtraction of the sc-APP17-TMR fluorescence measured at HEK293T cells transfected with pCI plasmid.

[12] = 1 μM APP17, best-fit, different curve for each data set
[13] = Global (shared) fit, Vehicle and 1 μM APP17, one curve for all data sets
[14] = Vehicle, best-fit, different curve for each data set

In the case of `C[C@H](NC[C@H](O)CP(=O)(O)Cc1ccccc1)c1ccc(Cl)c(Cl)c1` [CGP55845], the “mEPSC frequency (in words)” value [1] is listed as “reduced the inhibitory effect of APP17 on the mEPSC frequency”.
In the case of `NCCCC(=O)O` [GABA], the Bottom [2, 12] is reported as 0.9821, the HillSlope [2, 12] is reported as 0.6558 and the Span [2, 12] is reported as 0.4027. It also gave a Top [2, 12] of 1.385, a Basal ([2]; GABA curve fit, vehicle, n=9) of 0.99 and an EMax ([2]; GABA, vehicle, n=9) of 1.37. For the same compound, the Bottom [2, 13] was 0.9874, the HillSlope [2, 13] was 0.6587 and the Span [2, 13] was 0.3874. It also gave a Top [2, 13] of 1.375, a Bottom [2, 14] of 0.9919 and a HillSlope [2, 14] of 0.6543. It also gave a Span [2, 14] of 0.3771 and a Top [2, 14] of 1.369.
For `NCC(CC(=O)O)c1ccc(Cl)cc1` (centres unmarked) [baclofen], the “spontaneous Ca^2+ transients (in words)” value [3] was “reduced spontaneous Ca^2+ transients after 15 min of perfusion”, the “K^+ currents evoked by compound alone (in words)” value [4] was “activation of K^+ channels by Gβγ” and the “mEPSC frequency (in words)” value [5] was “significantly reduced mEPSC frequency”. The “eEPSC amplitude (in words)” value [6] was “able to reduce the amplitudes of eEPSCs”.
With Ac-DWGADTVSGDGYDAWDD-NH2 [sc-APP17] the “GABA-mediated PKA inactivation in presence of peptide (in words)” value (GB1a/2 receptors [7]; 10 μM peptide) was “GABA-mediated PKA inactivation was comparable”, the “effect of peptide alone on luminescence/receptor activity (in words)” value (GB1a/2 receptors [7]; 10 μM peptide) was “no agonistic, inverse agonistic, or antagonistic properties” and the “receptor activity with APP695 in cis (in words)” value (GB1a/2 receptors [7]; peptide, APP695 in cis) was “did not significantly alter GB1/2 receptor activity”. The “GABA-induced Kir3 currents in presence of peptide (in words)” value ([8]; 5 µM GABA) was “nor did the peptides alter K^+ currents in the presence of 5 µM GABA”, the “Kir3 K^+ currents evoked by compound alone (in words)” value ([8]; transfected HEK293T cells) was “did not trigger K^+ currents” and the “spontaneous Ca^2+ transients (in words)” value [3] was “no significant effect compared to ACSF”. For the same compound, the “intracellular Ca^2+ mobilization (in words)” value (GB1a/2 receptors [9]) was “did not increase intracellular Ca^2+”, the “baclofen-induced K^+ currents in presence of peptide (in words)” value ([4]; 5 µM peptide + 5 µM baclofen) was “elicited currents of similar amplitudes as baclofen alone” and the “K^+ currents evoked by compound alone (in words)” value [4] was “did not elicit any currents”. The “Fig. 2c value, 10mM GABA” value (GB1a/2 receptors [10]; 1 µM peptide with 10mM GABA, replicate 2) was 29.41, the “Fig. 2c value, 10mM GABA” value (GB1a/2 receptors [10]; 1 µM peptide with 10mM GABA, replicate 3) was 73.18 and the “Fig. 2c value, 10mM GABA” value (GB1a/2 receptors [10]; 1 µM peptide with 10mM GABA, replicate 4) was 69.99. The “Fig. 2c value, 10mM GABA” value (GB1a/2 receptors [10]; 1 µM peptide with 10mM GABA, replicate 5) was 51.73, the “Fig. 2c value, 10mM GABA” value (GB1a/2 receptors [10]; 1 µM peptide with 10mM GABA, replicate 6) was 86.53 and the “Fig. 2c value, Basal” value (GB1a/2 receptors [10]; 1 µM peptide, replicate 1) was 88.34. The “Fig. 2c value, Basal” value (GB1a/2 receptors [10]; 1 µM peptide, replicate 2) was 87.73, the “Fig. 2c value, Basal” value (GB1a/2 receptors [10]; 1 µM peptide, replicate 3) was 107.5 and the “Fig. 2c value, Basal” value (GB1a/2 receptors [10]; 1 µM peptide, replicate 4) was 102.7. The “Fig. 2c value, Basal” value (GB1a/2 receptors [10]; 1 µM peptide, replicate 5) was 121, the “Fig. 2c value, Basal” value (GB1a/2 receptors [10]; 1 µM peptide, replicate 6) was 65.57 and the “Fig. 2c value, 10mM GABA” value (GB1a/2 receptors [10]; 10 µM peptide with 10mM GABA, replicate 1) was 53.02. The “Fig. 2c value, 10mM GABA” value (GB1a/2 receptors [10]; 10 µM peptide with 10mM GABA, replicate 2) was 53.95, the “Fig. 2c value, 10mM GABA” value (GB1a/2 receptors [10]; 10 µM peptide with 10mM GABA, replicate 3) was 60.06 and the “Fig. 2c value, 10mM GABA” value (GB1a/2 receptors [10]; 10 µM peptide with 10mM GABA, replicate 4) was 60.44. For the same compound, the “Fig. 2c value, 10mM GABA” value (GB1a/2 receptors [10]; 10 µM peptide with 10mM GABA, replicate 6) was 23.67, the “Fig. 2c value, Basal” value (GB1a/2 receptors [10]; 10 µM peptide, replicate 1) was 90.75 and the “Fig. 2c value, Basal” value (GB1a/2 receptors [10]; 10 µM peptide, replicate 2) was 69.76. The “Fig. 2c value, Basal” value (GB1a/2 receptors [10]; 10 µM peptide, replicate 3) was 95.95, the “Fig. 2c value, Basal” value (GB1a/2 receptors [10]; 10 µM peptide, replicate 4) was 91.68 and the “Fig. 2c value, Basal” value (GB1a/2 receptors [10]; 10 µM peptide, replicate 5) was 104.2. The “Fig. 2c value, Basal” value (GB1a/2 receptors [10]; 10 µM peptide, replicate 6) was 90.96, the “FRET in the presence of 10 mM GABA (in words)” value (GB1a/2 receptors [10]; 1 or 10 μM peptide + 10 mM GABA) was “no significant differences in FRET” and the “FRET, basal, peptide alone (in words)” value (GB1a/2 receptors [10]; 1 or 10 μM peptide without GABA) was “no significant changes in FRET”. For the same compound, the “displacement of 1 μM APP17-TMR from GB1a/2 receptors (in words)” value [11] was “not sc-APP17 displaced 1 μM APP17-TMR from GB1a/2 receptors”.
